The values below come from US10479780B2, “Aminopyrazole derivatives” (Chugai Seiyaku Kabushiki Kaisha, priority 2015, dated 2019).

Common to all, as to assay type: biochemical
The target of one test is T1, human Lck enzyme (Homo sapiens, UniProt P06239).
T1 construct: purchased Carna Biosciences, Inc. 08-170
Description: Lck enzyme inhibitory activity (time-resolved fluorometry, biotinylated peptide phosphorylation). The following applies: read-out: LCK_IC50. In outline:
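Readout pairs a europium cryptate-labelled anti-phosphotyrosine antibody with XL665-streptavidin, measured by time-resolved fluorescence. IC50 derived from percent inhibition against untreated controls.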

The target in the next test is T2, human Src enzyme (Homo sapiens, UniProt P12931).
T2 construct: purchased Carna Biosciences, Inc. 08-173
Description: Src enzyme inhibitory activity (time-resolved fluorometry, biotinylated peptide phosphorylation). As to conditions: read-out: SRC_IC50. The method, boiled down:
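Compounds were tested for blocking tyrosine phosphorylation of a biotinylated peptide substrate by recombinant human Src. Phosphorylated product was quantified by time-resolved fluorometry using europium cryptate and XL665 conjugates, and IC50 was calculated against the compound-free control.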

The next test concerns the target T3, human Yes1 enzyme (Homo sapiens, UniProt P07947).
T3 construct: made in house
Description: Yes1 enzyme inhibitory activity (time-resolved fluorometry, biotinylated peptide phosphorylation). The following applies: read-out: YES_IC50. In outline:
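Inhibition was expressed against a compound-free control to give IC50, using TR-FRET read-out (Eu-cryptate anti-pTyr antibody, streptavidin-XL665).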

The mark [1] stands for this setting: biotinylated peptide phosphorylation.

Read-outs that look alike come from different tables or passages of the source.

T1 sequence (P06239 whole entry): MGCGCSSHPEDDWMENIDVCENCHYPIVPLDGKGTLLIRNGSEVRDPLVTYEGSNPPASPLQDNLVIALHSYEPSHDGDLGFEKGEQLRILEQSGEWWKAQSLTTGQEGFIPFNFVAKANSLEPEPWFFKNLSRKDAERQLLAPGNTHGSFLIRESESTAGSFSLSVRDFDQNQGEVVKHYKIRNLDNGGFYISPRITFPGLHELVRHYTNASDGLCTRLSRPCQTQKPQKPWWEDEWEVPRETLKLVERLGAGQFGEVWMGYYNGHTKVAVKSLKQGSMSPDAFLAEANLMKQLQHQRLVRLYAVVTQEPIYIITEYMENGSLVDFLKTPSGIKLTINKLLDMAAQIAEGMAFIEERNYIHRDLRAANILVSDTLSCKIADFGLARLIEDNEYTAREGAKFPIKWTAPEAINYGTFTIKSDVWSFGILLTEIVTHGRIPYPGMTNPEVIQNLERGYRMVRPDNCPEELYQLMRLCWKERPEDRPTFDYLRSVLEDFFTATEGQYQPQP
T3 sequence (P07947 whole entry): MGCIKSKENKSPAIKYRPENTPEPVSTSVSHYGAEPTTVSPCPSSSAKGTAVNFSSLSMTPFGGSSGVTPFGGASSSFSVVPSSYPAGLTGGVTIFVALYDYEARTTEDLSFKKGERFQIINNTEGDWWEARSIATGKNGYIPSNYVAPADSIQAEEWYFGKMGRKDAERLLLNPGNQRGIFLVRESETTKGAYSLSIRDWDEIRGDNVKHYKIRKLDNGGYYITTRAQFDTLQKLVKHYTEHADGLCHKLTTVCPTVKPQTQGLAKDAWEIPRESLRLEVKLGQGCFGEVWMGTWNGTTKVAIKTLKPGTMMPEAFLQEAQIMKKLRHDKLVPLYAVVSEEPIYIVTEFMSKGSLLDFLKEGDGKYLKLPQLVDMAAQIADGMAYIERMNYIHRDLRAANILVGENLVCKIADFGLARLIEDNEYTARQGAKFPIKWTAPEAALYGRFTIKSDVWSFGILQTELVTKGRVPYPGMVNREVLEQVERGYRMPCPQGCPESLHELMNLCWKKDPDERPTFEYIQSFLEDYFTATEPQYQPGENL
T2 sequence (P12931 whole entry): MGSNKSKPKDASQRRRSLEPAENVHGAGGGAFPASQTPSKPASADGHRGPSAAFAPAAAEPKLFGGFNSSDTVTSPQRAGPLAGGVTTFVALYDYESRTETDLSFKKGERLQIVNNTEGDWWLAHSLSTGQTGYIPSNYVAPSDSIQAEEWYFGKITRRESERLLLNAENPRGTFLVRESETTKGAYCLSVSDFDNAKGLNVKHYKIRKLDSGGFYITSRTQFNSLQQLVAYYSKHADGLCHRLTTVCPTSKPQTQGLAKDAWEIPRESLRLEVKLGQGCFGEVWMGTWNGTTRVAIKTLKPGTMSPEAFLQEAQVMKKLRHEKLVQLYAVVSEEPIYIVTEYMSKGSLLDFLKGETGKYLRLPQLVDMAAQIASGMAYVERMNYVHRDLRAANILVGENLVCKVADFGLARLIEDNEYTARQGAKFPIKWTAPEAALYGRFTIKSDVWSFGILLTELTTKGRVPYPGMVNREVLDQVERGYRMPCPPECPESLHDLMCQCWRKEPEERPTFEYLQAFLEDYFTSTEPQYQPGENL

With `Cc1cc(Oc2c(F)cccc2F)ncc1-n1ncc(C(=O)c2cc3cc(OC(F)F)c(C4CCN(C(=O)CN)CC4)cc3[nH]2)c1N` [Example 4-18-003, 2-amino-1-[4-[2-[5-amino-1-[6-(2,6-difluorophenoxy)-4-methylpyridin-3-yl]pyrazole-4-carbonyl]-5-(difluoromethoxy)-1H-indol-6-yl]piperidin-1-yl]ethanone], the figures for the IC50 on human Lck enzyme (setting [1]), at human Src enzyme (setting [1]) and at human Yes1 enzyme (setting [1]) were 11 nM, 23 nM and 4.8 nM, respectively.

Turning to `Cc1cc(Oc2ccccc2F)ccc1-n1ncc(C(=O)c2cc3cc(OCC(F)F)c(N4C(=O)NC(C)(C)C4=O)cc3[nH]2)c1N` [Example 4-23-033, 3-[2-[5-amino-1-[4-(2-fluorophenoxy)-2-methylphenyl]pyrazole-4-carbonyl]-5-(2,2-difluoroethoxy)-1H-indol-6-yl]-5,5-dimethylimidazolidine-2,4-dione], the IC50 at human Lck enzyme (setting [1]) came out at 2.1 nM; at human Src enzyme (setting [1]), 6.1 nM; at human Yes1 enzyme (setting [1]) it was 0.5 nM.

As to `Cc1cc2cc(C(=O)c3cnn(-c4cnc(Oc5ccccc5F)cc4C)c3N)[nH]c2cc1N1CCCS1(=O)=O` [Example 4-16-001, {5-amino-1-[6-(2-fluorophenoxy)-4-methylpyridin-3-yl]pyrazol-4-yl}-[6-(1,1-dioxo-1,2-thiazolidin-2-yl)-5-methyl-1H-indol-2-yl]methanone], the IC50 on human Lck enzyme (setting [1]) came to 4.5 nM; at human Src enzyme (setting [1]) it was 16 nM; on human Yes1 enzyme (setting [1]), 0.62 nM.

Turning to `Cc1cc(-n2ncc(C(=O)c3cc4cc(OC5CCN(C(C)C)CC5)c(F)cc4[nH]3)c2N)ccc1Oc1cccc(F)c1` [Example 5-1-208, [5-amino-1-[4-(3-fluorophenoxy)-3-methylphenyl]pyrazol-4-yl]-[6-fluoro-5-(1-propan-2-ylpiperidin-4-yl)oxy-1H-indol-2-yl] methanone], the IC50 on human Lck enzyme is 65 nM; at human Src enzyme, 450 nM; on human Yes1 enzyme it was 3.7 nM.

For the compound `Cc1cc2cc(C(=O)c3cnn(-c4cnc(Oc5ccccc5F)cc4C)c3N)[nH]c2cc1NS(=O)(=O)N1CCOCC1` [Example 4-2-108, N-[2-[5-amino-1-[6-(2-fluorophenoxy)-4-methylpyridin-3-yl]pyrazole-4-carbonyl]-5-methyl-1H-indol-6-yl]morpholine-4-sulfonamide], the IC50 came out at 31 nM on human Lck enzyme (setting [1]), 94 nM at human Src enzyme (setting [1]) and 1 nM at human Yes1 enzyme (setting [1]).

Consider `Cc1cc(Oc2c(F)cccc2F)ncc1-n1ncc(C(=O)c2cc3cc(F)c(N4C(=O)NC(C)(C(F)(F)F)C4=O)cc3[nH]2)c1N` (stereo not drawn) [Example 5-1-370, 3-[2-[5-amino-1-[6-(2,6-difluorophenoxy)-4-methylpyridin-3-yl]pyrazole-4-carbonyl]-5-fluoro-1H-indol-6-yl]-5-methyl-5-(trifluoromethyl)imidazolidine-2,4-dione], for which the IC50 at human Lck enzyme was determined as 27 nM; on human Src enzyme, 150 nM; at human Yes1 enzyme, 8.3 nM.

Consider `Cc1cc2cc(C(=O)c3cnn(-c4ccc(Oc5cccc(F)c5F)cc4C)c3N)[nH]c2cc1NS(=O)(=O)CCCF` [Example 4-2-069, N-[2-[5-amino-1-[4-(2,3-difluorophenoxy)-2-methylphenyl]pyrazole-4-carbonyl]-5-methyl-1H-indol-6-yl]-3-fluoropropane-1-sulfonamide], for which the IC50 at human Lck enzyme (setting [1]) worked out at 22 nM; at human Src enzyme (setting [1]), 67 nM; on human Yes1 enzyme (setting [1]), 1 nM.

Consider `Cc1cc(Oc2ccccc2F)ncc1-n1ncc(C(=O)c2cc3cc(NS(C)(=O)=O)c(F)cc3[nH]2)c1N` [Example 4-2-104, N-[2-[5-amino-1-[6-(2-fluorophenoxy)-4-methylpyridin-3-yl]pyrazole-4-carbonyl]-6-fluoro-1H-indol-5-yl]methanesulfonamide], for which the IC50 on human Lck enzyme (setting [1]) was 1.9 nM; at human Src enzyme (setting [1]) it was 22 nM; on human Yes1 enzyme (setting [1]), 0.56 nM.

`Cc1cc(Oc2c(F)cccc2F)ncc1-n1ncc(C(=O)c2cc3cc(OC4CCN(C5CCCC5)CC4)c(-c4ccccc4C(F)(F)F)cc3[nH]2)c1N` [Example 5-1-387, [5-amino-1-[6-(2,6-difluorophenoxy)-4-methylpyridin-3-yl]pyrazol-4-yl]-[5-(1-cyclopentylpiperidin-4-yl)oxy-6-[2-(trifluoromethyl)phenyl]-1H-indol-2-yl] methanone]: the results for the IC50 on human Lck enzyme, at human Src enzyme and at human Yes1 enzyme were 29 nM, 190 nM and 3.1 nM, respectively.

For `Cc1cc(Oc2c(F)cccc2F)ncc1-n1ncc(C(=O)c2cc3cc(N4CCOCC4)c(NS(=O)(=O)CCCF)cc3[nH]2)c1N` [Example 4-24-019, N-[2-[5-amino-1-[6-(2,6-difluorophenoxy)-4-methylpyridin-3-yl]pyrazole-4-carbonyl]-5-morpholin-4-yl-1H-indol-6-yl]-3-fluoropropane-1-sulfonamide], the figures for the IC50 on human Lck enzyme (setting [1]), on human Src enzyme (setting [1]) and on human Yes1 enzyme (setting [1]) were 62 nM, 140 nM and 3.9 nM, respectively.

As to `Cc1cc(-n2ncc(C(=O)c3cc4cc(OC(F)F)c(N5CCOC5=O)cc4[nH]3)c2N)ccc1Oc1ccccc1F` [Example 5-1-177, 3-[2-[5-amino-1-[4-(2-fluorophenoxy)-3-methylphenyl]pyrazole-4-carbonyl]-5-(difluoromethoxy)-1H-indol-6-yl]-1,3-oxazolidin-2-one], the IC50 came to 82 nM on human Lck enzyme, 340 nM at human Src enzyme and 2.4 nM on human Yes1 enzyme.

Regarding `COc1cc2[nH]c(C(=O)c3cnn(-c4ccc(Oc5ccccc5F)cc4C)c3N)cc2cc1NS(C)(=O)=O` [Example 4-1-013, N-[2-[5-amino-1-[4-(2-fluorophenoxy)-2-methylphenyl]pyrazole-4-carbonyl]-6-methoxy-1H-indol-5-yl]methanesulfonamide], the IC50 on human Lck enzyme (setting [1]) was 1.3 nM; at human Src enzyme (setting [1]), 2.6 nM; on human Yes1 enzyme (setting [1]) it was 0.45 nM.

For `Cc1cc2cc(C(=O)c3cnn(-c4cnc(Oc5ccc(F)cc5)cc4C)c3N)[nH]c2cc1N1CCCS1(=O)=O` [Example 4-2-119, [5-amino-1-[6-(4-fluorophenoxy)-4-methylpyridin-3-yl]pyrazol-4-yl]-[6-(1,1-dioxo-1,2-thiazolidin-2-yl)-5-methyl-1H-indol-2-yl]methanone], the IC50 at human Lck enzyme (setting [1]) was determined as 23 nM; at human Src enzyme (setting [1]) it was 70 nM; on human Yes1 enzyme (setting [1]) it was 7.4 nM.

As for `Cc1cccc(S(=O)(=O)Nc2cc3[nH]c(C(=O)c4cnn(-c5cnc(Oc6ccccc6F)cc5C)c4N)cc3cc2C)n1` [Example 5-1-507, N-[2-[5-amino-1-[6-(2-fluorophenoxy)-4-methylpyridin-3-yl]pyrazole-4-carbonyl]-5-methyl-1H-indol-6-yl]-6-methylpyridine-2-sulfonamide], the IC50 at human Lck enzyme (setting [1]) was determined as 92 nM; on human Src enzyme (setting [1]) it was 480 nM; on human Yes1 enzyme (setting [1]), 2.8 nM.

On to `Cc1cc(Oc2ccccc2Cl)ncc1-n1ncc(C(=O)c2cc3cc(F)c(NS(=O)(=O)CCCF)cc3[nH]2)c1N` [Example 4-2-023, N-[2-[5-amino-1-[6-(2-chlorophenoxy)-4-methylpyridin-3-yl]pyrazole-4-carbonyl]-5-fluoro-1H-indol-6-yl]-3-fluoropropane-1-sulfonamide], for which the IC50 is 47 nM on human Lck enzyme (setting [1]), 84 nM at human Src enzyme (setting [1]) and 1.7 nM on human Yes1 enzyme (setting [1]).

Regarding `Cc1cccc(S(=O)(=O)Nc2cc3[nH]c(C(=O)c4cnn(-c5cnc(Oc6c(F)cccc6F)cc5C)c4N)cc3cc2OCC(F)F)n1` [Example 5-1-573, N-[2-[5-amino-1-[6-(2,6-difluorophenoxy)-4-methylpyridin-3-yl]pyrazole-4-carbonyl]-5-(2,2-difluoroethoxy)-1H-indol-6-yl]-6-methylpyridine-2-sulfonamide], the results for the IC50 at human Lck enzyme (setting [1]), on human Src enzyme (setting [1]) and on human Yes1 enzyme (setting [1]) were 14 nM, 440 nM and 2.9 nM, respectively.

As to `Cc1cc(-n2ncc(C(=O)c3cc4cc(OC5CCN(C(C)C)CC5)c(N5CCC(N6CCOCC6)CC5)cc4[nH]3)c2N)ccc1Oc1ccccc1F` [Example 5-1-182, [5-amino-1-[4-(2-fluorophenoxy)-3-methylphenyl]pyrazol-4-yl]-[6-(4-morpholin-4-ylpiperidin-1-yl)-5-(1-propan-2-ylpiperidin-4-yl)oxy-1H-indol-2-yl]methanone], the results for the IC50 at human Lck enzyme, at human Src enzyme and at human Yes1 enzyme were 2.7 nM, 24 nM and 0.17 nM, respectively.

For `Cc1cc2cc(C(=O)c3cnn(-c4cnc(Oc5ccccc5C)cc4C)c3N)[nH]c2cc1NS(C)(=O)=O` [Example 4-2-065, N-[2-[5-amino-1-[4-methyl-6-(2-methylphenoxy)pyridin-3-yl]pyrazole-4-carbonyl]-5-methyl-1H-indol-6-yl]methanesulfonamide], the IC50 on human Lck enzyme (setting [1]) came out at 18 nM; on human Src enzyme (setting [1]) it was 44 nM; on human Yes1 enzyme (setting [1]), 2.2 nM.

`CC(C)N1CCC(c2cc3[nH]c(C(=O)c4cnn(-c5ccc(Oc6cccc(Cl)c6)cc5)c4N)cc3cc2F)CC1` [Example 5-1-008, [5-amino-1-[4-(3-chlorophenoxy)phenyl]pyrazol-4-yl]-[5-fluoro-6-(1-propan-2-ylpiperidin-4-yl)-1H-indol-2-yl]methanone]: the IC50 was 4.6 nM at human Lck enzyme, 60 nM at human Src enzyme and 2.7 nM on human Yes1 enzyme.

As to `Cc1cc2cc(C(=O)c3cnn(-c4ccc(Oc5ccccc5F)cc4C)c3N)[nH]c2cc1N1C(=O)N[C@@H](C(C)C)C1=O` [Example 5-1-476, (5S)-3-[2-[5-amino-1-[4-(2-fluorophenoxy)-2-methylphenyl]pyrazole-4-carbonyl]-5-methyl-1H-indol-6-yl]-5-propan-2-ylimidazolidine-2,4-dione], the IC50 at human Lck enzyme (setting [1]) amounted to 12 nM; on human Src enzyme (setting [1]), 97 nM; at human Yes1 enzyme (setting [1]), 2.9 nM.
